One data set relates to Hepatitis C virus. Briefly: Antiviral activity against Hepatitis C virus genotype 1b infected in human HuH5.2 cells after 72 hrs by luciferase reporter gene assay. It counts as functional, cell-based, Hepacivirus hominis. For orientation: A reporter such as luciferase makes a cellular process visible.
Data set [1] can be described thus: (§1) Cytotoxicity against human HuH5.2 cells assessed as anti-metabolic effect after 72 hrs by MTT assay. The format is ADME, cell-based, Huh-5-2. As to conditions: HuH5.2 (Huh-5-2) cells. In general terms: Formazan colour is commonly taken as a measure of viable cells.
A short description of data set [2]: Selectivity index, ratio of CC50 for human HuH5.2 cells to EC50 for Hepatitis C virus genotype 1b infected in human HuH5.2 cells. The format is toxicity, cell-based. Particulars: for selectivity ratio: HuH5.2 cells, read-out: Ratio CC50/EC50.
Data set [3] can be described thus: Inhibition of Hepatitis C virus genotype 1b NS3 helicase unwinding activity using fluorescent DNA substrate by molecular beacon assay. Also on record: species or system Hepatitis C virus subtype 1b.
A short description of data set [4]: Inhibition of Hepatitis C virus genotype 1b Con1 NS3 helicase ATP hydrolysis activity using ATP as substrate in presence of poly U RNA. Also on record: species or system Hepatitis C virus (isolate Con1).
The subject of another data set is Huh-5-2. The data set is described as §1. Particulars: huh-5-2, 72 h, 72 h. The format is ADME, cell-based.
The mark [5] stands for this setting: Hepatitis C virus, genotype 1b, Huh-5-2, 72 h.

What is called EC50 is the concentration giving half of the maximal effect. A lower EC50 goes with a more potent agent. One may read the EC90 as the point of the concentration-response curve where the effect stands at 90%. The low end stands for an effect from little substance, the high end for a need for much substance. What is called CC50 is the concentration giving 50% cytotoxicity. The term IC50 denotes the concentration at which inhibition is half-maximal.

In the data set on Hepatitis C virus (setting [5]), `N=c1c(S(=O)(=O)c2ccc(Cl)cc2)cc2c(=O)n3ccccc3nc2n1CCN1CCOCC1` showed an EC50 of 28 µM and an EC90 of 97.6 µM. Also, the CC50 at 72 h in data set [1] was found to be 151 µM. The selectivity ratio in data set [2] is 5.4.

Regarding `Cc1ccc2nc(-c3ccc4nc(-c5ccc(N)cc5)sc4c3)sc2c1S(=O)(=O)O`, half-maximal inhibition in data set [3] (IC50) was put at 10 µM.

In the case of `Oc1c(CN2CCOCC2)cc(CN2CCOCC2)cc1CN1CCOCC1`, in the data set on Hepatitis C virus (setting [5]), the EC50 is over 255 µM and the concentration for an effect of 90% (EC90) is over 255 µM. Moreover, the CC50 at 72 h in data set [1] was over 255 µM.

On to `CCOC(=O)c1ccc(/C=C2/C=C(c3ccccc3)N(c3ccc(C)cc3C)C2=O)cc1`, for which the EC50 with Hepatitis C virus (setting [5]) was in the range of 0.8 to 43.1 µM. Also, the CC50 at 72 h in data set [1] is 47 to 90.8 µM. In addition, the selectivity ratio in data set [2] fell in the range of 2.1 to 58.8. In data set [3], this molecule showed an IC50 of over 1000 µM.

In the data set on Hepatitis C virus (setting [5]), `CCOC(=O)c1ccc(/C=C2/C=C(c3ccccc3)N(c3ccccc3)C2=O)cc1` came in with an EC50 of 27.2 µM and an EC90 of 100 µM. For the same molecule, the CC50 at 72 h in data set [1] is 112 µM. The selectivity ratio in data set [2] turned out to be 4. Besides, the IC50 in data set [3] was over 1000 µM.

With `CN1CCN(CC2=C(O)C(=O)N(CCc3ccccc3)C3C=CC=CN23)CC1` (configuration not stated), in the data set with Hepatitis C virus (setting [5]), the EC50 came out at 235 µM and the EC90 is over 264 µM. Also, the CC50 at 72 h in data set [1] is over 264 µM.

As for `Cc1ccc(N2C(=O)/C(=C\c3ccccc3)C=C2c2ccccc2)c(Br)c1`, in the data set with Hepatitis C virus (setting [5]), the EC50 was found to be 4.1 µM. The same molecule gave an EC90 in the data set on Hepatitis C virus (setting [5]) of 12.4 µM. The CC50 at 72 h in data set [1] is over 240 µM. Also, the selectivity ratio in data set [2] was over 58. Besides, the IC50 is 620 µM in data set [4] and over 1000 µM in data set [3].

In the data set with Hepatitis C virus (setting [5]), `O=C1/C(=C\c2ccc(Br)cc2)C=C(c2ccccc2)N1c1ccccc1` gave an EC50 of 4.3 µM and a 90% effect concentration (EC90) of 11.6 µM. Further, the CC50 at 72 h in data set [1] is 25.7 µM. Besides, the selectivity ratio in data set [2] came out at 6. The molecule also came in with an IC50 in data set [3] of over 1000 µM.

As to `O=C1/C(=C\c2ccc(-c3ccccc3)cc2)C=C(c2ccccc2)N1c1ccccc1`, in the data set with Hepatitis C virus (setting [5]), the half-maximal effective concentration (EC50) was 16.1 µM and the EC90 was found to be 61.7 µM. Moreover, the CC50 at 72 h in data set [1] turned out to be 156 µM. Moreover, the selectivity ratio in data set [2] came out at 9.7. Also, the IC50 in data set [3] was over 1000 µM.

For the molecule `CN(C)c1ccc(/C=C2\C(=O)N(c3ncc(-c4ccc(Cl)cc4)s3)N=C2c2ccccc2)cc1`, in the data set with Hepatitis C virus (setting [5]), a half-maximal response (EC50) required 147 µM and the EC90 is over 206 µM. The CC50 at 72 h in data set [1] was over 206 µM. Besides, the selectivity ratio in data set [2] is over 1.4.

In the data set on Hepatitis C virus (setting [5]), `O=C1/C(=C\c2ccccc2)C=C(c2ccccc2)N1c1ccccc1` gave an EC50 of 4.7 µM and an EC90 of 14 µM. Further, in data set [1], the CC50 at 72 h stood at 30.3 µM. Moreover, the selectivity ratio in data set [2] came out at 6.4. Further, the IC50 in data set [3] is over 1000 µM.

In the case of `COc1ccc(/C=C2/C=C(c3ccccc3)N(c3ccccc3)C2=O)cc1`, in the data set with Hepatitis C virus (setting [5]), the response was half-maximal at 5.9 µM (EC50) and the 90% effect level (EC90) was put at 21.6 µM. Also, the CC50 at 72 h in data set [1] came to 97.2 µM. Besides, the selectivity ratio in data set [2] worked out at 18. This molecule also displayed an IC50 in data set [3] of 438 µM.

`CCOC(=O)c1ccc(/C=C2/C=C(c3ccccc3)N(c3ccc(C)cc3)C2=O)cc1`: in the data set on Hepatitis C virus (setting [5]), it took 22.5 µM to reach a half-maximal effect (EC50) and the EC90 was found to be 81.1 µM. The CC50 at 72 h in data set [1] was over 244 µM. In addition, the selectivity ratio in data set [2] is over 11. In data set [3], the IC50 is over 1000 µM.

`CN1CCN(Cc2c3c(c(CN4CCN(C)CC4)c4c2CCC4)CCC3)CC1`: a half-maximal effect in the data set on Hepatitis C virus (setting [5]) (EC50) was put at 7.7 µM. For the same molecule, the CC50 at 72 h in data set [1] was 36.9 µM. Also, the selectivity ratio in data set [2] was determined as 4.8.

On to `CCOC(=O)c1ccc(/C=C2\C=C(c3ccccc3)N(c3ccc(C)cc3Br)C2=O)cc1` (stereo in doubt; form 1), for which the 90% effect concentration (EC90) in the data set on Hepatitis C virus amounted to 149 µM. The half-maximal effective concentration (EC50) in the data set with Hepatitis C virus (setting [5]) fell in the range of 38 to 38.3 µM. Moreover, the CC50 at 72 h in data set [1] was in the range of 204 to 205 µM.

In the data set with Hepatitis C virus, `CCOC(=O)c1ccc(/C=C2\C=C(c3ccccc3)N(c3ccc(C)cc3Br)C2=O)cc1` (stereo in doubt; form 2) yielded an EC50 of 20.3 µM and a concentration for an effect of 90% (EC90) of 61.7 µM. Further, the CC50 in the data set on Huh-5-2 was over 205 µM. The “Ratio CC50/EC50” value in data set [2] is over 10. Besides, the IC50 in data set [3] was over 1000 µM.

`O=C(O)C1=CC(=C(c2ccc(O)c(C(=O)O)c2)c2ccc(O)c(C(=O)O)c2)C=CC1=O` [AURINTRICARBOXYLIC ACID] had a concentration for half-maximal inhibition (IC50) in data set [3] of 0.3 µM.

The values are drawn from ChEMBL document CHEMBL4002613, “Shape-based virtual screening, synthesis and evaluation of novel pyrrolone derivatives as antiviral agents against HCV” (Bioorg Med Chem Lett, 2017).
